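Method: 48-hour compound exposure of cells in 96-well plates, five concentrations, linear interpolation of endpoints. Here, GI50 denotes the concentration required for 50% inhibition of growth.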 The source made the active and inactive calls. No stated cut-off is given here; in the data, active = GI50 up to about 1.1 µM and inactive = higher.
Key:
Assay in all cases: DTP human tumour cell line panel, 48 h
SK-MEL-5 = test system: SK-MEL-5
HCT-116 = test system: HCT-116
LOX IMVI = test system: LOX IMVI
UACC-62 = test system: UACC-62
SW-620 = test system: SW-620
NCI-H23 = test system: NCI-H23
A549 = test system: A549
U-251 = test system: U-251
KM12 = test system: KM12
IGROV-1 = test system: IGROV-1
EKVX = test system: EKVX
CAKI-1 = test system: CAKI-1
SNB-78 = test system: SNB-78
SF-268 = test system: SF-268
HL-60 = test system: HL-60
HCC 2998 = test system: HCC 2998
SNB-75 = test system: SNB-75
HOP-92 = test system: HOP-92
RPMI-8226 = test system: RPMI-8226
SNB-19 = test system: SNB-19
SF-295 = test system: SF-295
MOLT-4 = test system: MOLT-4
DLD-1 = test system: DLD-1
HT-29 = test system: HT-29
ACHN = test system: ACHN
HCT-15 = test system: HCT-15
COLO 205 = test system: COLO 205
OVCAR-5 = test system: OVCAR-5
SN12C = test system: SN12C
M14 = test system: M14
UACC-257 = test system: UACC-257
OVCAR-8 = test system: OVCAR-8
RXF 393 = test system: RXF 393
LXFL 529 = test system: LXFL 529
OVCAR-3 = test system: OVCAR-3
CCRF-CEM = test system: CCRF-CEM
K562 = test system: K562
SK-MEL-2 = test system: SK-MEL-2
SR = test system: SR
SF-539 = test system: SF-539
NCI-H226 = test system: NCI-H226
NCI-H460 = test system: NCI-H460
M19-MEL = test system: M19-MEL
786-0 = test system: 786-0
DMS-273 = test system: DMS-273
Malme-3M = test system: Malme-3M
HOP-18 = test system: HOP-18
A498 = test system: A498
DMS-114 = test system: DMS-114
NCI-H522 = test system: NCI-H522
XF498 = test system: XF498
SK-MEL-28 = test system: SK-MEL-28
RXF 631 = test system: RXF 631
OVCAR-4 = test system: OVCAR-4
HOP-62 = test system: HOP-62
TK-10 = test system: TK-10
KM-20L2 = test system: KM-20L2
UO-31 = test system: UO-31

Question: For `COc1ccc(NC(=O)CC(=O)N2N=C(N(CCC#N)c3ccccc3Cl)CC2c2ccccc2)cc1` (stereo not given), which GI50 (SK-MEL-5) is on record?
Answer: > 100 µM (inactive)

Question: And the GI50 (HCT-116)?
Answer: > 100 µM (inactive)

Question: What about the GI50 (LOX IMVI) of the same molecule?
Answer: > 100 µM (inactive)

Question: What about the GI50 (UACC-62) of the same molecule?
Answer: > 100 µM (inactive)

Question: And the GI50 (SW-620)?
Answer: > 100 µM (inactive)

Question: What about the GI50 (NCI-H23) of the same molecule?
Answer: > 100 µM (inactive)

Question: What about the GI50 (A549) of the same molecule?
Answer: > 100 µM (inactive)

Question: And the GI50 (U-251)?
Answer: > 100 µM (inactive)

Question: And the GI50 (KM12)?
Answer: > 100 µM (inactive)

Question: What about the GI50 (IGROV-1) of the same molecule?
Answer: > 100 µM (inactive)

Question: What about the GI50 (EKVX) of the same molecule?
Answer: > 100 µM (inactive)

Question: And the GI50 (CAKI-1)?
Answer: > 100 µM (inactive)

Question: And the GI50 (SNB-78)?
Answer: > 100 µM (inactive)

Question: What about the GI50 (SF-268) of the same molecule?
Answer: > 100 µM (inactive)

Question: What about the GI50 (HL-60) of the same molecule?
Answer: > 100 µM (inactive)

Question: And the GI50 (HCC 2998)?
Answer: > 100 µM (inactive)

Question: What about the GI50 (SNB-75) of the same molecule?
Answer: > 100 µM (inactive)

Question: And the GI50 (HOP-92)?
Answer: > 100 µM (inactive)

Question: And the GI50 (RPMI-8226)?
Answer: > 100 µM (inactive)

Question: What about the GI50 (SNB-19) of the same molecule?
Answer: > 100 µM (inactive)

Question: And the GI50 (SF-295)?
Answer: > 100 µM (inactive)

Question: What about the GI50 (MOLT-4) of the same molecule?
Answer: > 100 µM (inactive)

Question: And the GI50 (DLD-1)?
Answer: > 100 µM (inactive)

Question: And the GI50 (HT-29)?
Answer: > 100 µM (inactive)

Question: And the GI50 (ACHN)?
Answer: > 100 µM (inactive)

Question: What about the GI50 (HCT-15) of the same molecule?
Answer: > 100 µM

Question: And the GI50 (COLO 205)?
Answer: > 100 µM (inactive)

Question: What about the GI50 (OVCAR-5) of the same molecule?
Answer: > 100 µM (inactive)

Question: What about the GI50 (SN12C) of the same molecule?
Answer: > 100 µM (inactive)

Question: What about the GI50 (M14) of the same molecule?
Answer: > 100 µM (inactive)

Question: And the GI50 (UACC-257)?
Answer: > 100 µM (inactive)

Question: And the GI50 (OVCAR-8)?
Answer: > 100 µM (inactive)

Question: And the GI50 (RXF 393)?
Answer: > 100 µM (inactive)

Question: What about the GI50 (LXFL 529) of the same molecule?
Answer: > 100 µM (inactive)

Question: And the GI50 (OVCAR-3)?
Answer: > 100 µM (inactive)

Question: What about the GI50 (CCRF-CEM) of the same molecule?
Answer: > 100 µM (inactive)

Question: What about the GI50 (K562) of the same molecule?
Answer: > 100 µM (inactive)

Question: And the GI50 (SK-MEL-2)?
Answer: > 100 µM (inactive)

Question: And the GI50 (SR)?
Answer: > 100 µM (inactive)

Question: And the GI50 (SF-539)?
Answer: > 100 µM (inactive)

Question: And the GI50 (NCI-H226)?
Answer: > 100 µM (inactive)

Question: And the GI50 (NCI-H460)?
Answer: > 100 µM (inactive)

Question: What about the GI50 (M19-MEL) of the same molecule?
Answer: > 100 µM (inactive)

Question: And the GI50 (786-0)?
Answer: > 100 µM (inactive)

Question: What about the GI50 (DMS-273) of the same molecule?
Answer: > 100 µM (inactive)

Question: What about the GI50 (Malme-3M) of the same molecule?
Answer: > 100 µM (inactive)

Question: And the GI50 (HOP-18)?
Answer: > 100 µM (inactive)

Question: What about the GI50 (A498) of the same molecule?
Answer: > 100 µM (inactive)

Question: What about the GI50 (DMS-114) of the same molecule?
Answer: > 100 µM (inactive)

Question: What about the GI50 (NCI-H522) of the same molecule?
Answer: > 100 µM (inactive)

Question: What about the GI50 (XF498) of the same molecule?
Answer: > 100 µM (inactive)

Question: And the GI50 (SK-MEL-28)?
Answer: > 100 µM (inactive)

Question: And the GI50 (RXF 631)?
Answer: > 100 µM (inactive)

Question: And the GI50 (OVCAR-4)?
Answer: > 100 µM (inactive)

Question: And the GI50 (HOP-62)?
Answer: > 100 µM (inactive)

Question: And the GI50 (TK-10)?
Answer: > 100 µM (inactive)

Question: And the GI50 (KM-20L2)?
Answer: > 100 µM (inactive)

Question: What about the GI50 (UO-31) of the same molecule?
Answer: > 100 µM (inactive)

Question: For `COc1ccc(/C=C2\CCC(C)(CN(C)C)C2=O)cc1` (stereo not given), which GI50 (SK-MEL-5) is on record?
Answer: > 100 µM (inactive)

Question: What about the GI50 (HCT-116) of the same molecule?
Answer: > 100 µM (inactive)

Question: And the GI50 (LOX IMVI)?
Answer: > 100 µM (inactive)

Question: And the GI50 (UACC-62)?
Answer: > 100 µM (inactive)

Question: What about the GI50 (SW-620) of the same molecule?
Answer: > 100 µM (inactive)

Question: What about the GI50 (NCI-H23) of the same molecule?
Answer: > 100 µM (inactive)

Question: And the GI50 (A549)?
Answer: > 100 µM (inactive)

Question: What about the GI50 (U-251) of the same molecule?
Answer: 76.4 µM (inactive)

Question: And the GI50 (KM12)?
Answer: > 100 µM (inactive)

Question: What about the GI50 (IGROV-1) of the same molecule?
Answer: > 100 µM (inactive)

Question: What about the GI50 (EKVX) of the same molecule?
Answer: > 100 µM (inactive)

Question: What about the GI50 (CAKI-1) of the same molecule?
Answer: 18.7 µM (inactive)

Question: And the GI50 (SNB-78)?
Answer: > 100 µM (inactive)

Question: What about the GI50 (SF-268) of the same molecule?
Answer: > 100 µM (inactive)

Question: And the GI50 (HL-60)?
Answer: 56.4 µM (inactive)

Question: And the GI50 (HCC 2998)?
Answer: > 100 µM (inactive)

Question: What about the GI50 (SNB-75) of the same molecule?
Answer: > 100 µM (inactive)

Question: What about the GI50 (HOP-92) of the same molecule?
Answer: > 100 µM (inactive)

Question: And the GI50 (RPMI-8226)?
Answer: 38 µM (inactive)

Question: What about the GI50 (SNB-19) of the same molecule?
Answer: 6.18 µM (inactive)

Question: What about the GI50 (SF-295) of the same molecule?
Answer: > 100 µM (inactive)

Question: What about the GI50 (MOLT-4) of the same molecule?
Answer: > 100 µM (inactive)

Question: And the GI50 (DLD-1)?
Answer: > 100 µM (inactive)

Question: What about the GI50 (HT-29) of the same molecule?
Answer: > 100 µM (inactive)

Question: And the GI50 (ACHN)?
Answer: > 100 µM (inactive)

Question: What about the GI50 (HCT-15) of the same molecule?
Answer: 60.8 µM

Question: What about the GI50 (COLO 205) of the same molecule?
Answer: > 100 µM (inactive)

Question: What about the GI50 (OVCAR-5) of the same molecule?
Answer: > 100 µM (inactive)

Question: What about the GI50 (SN12C) of the same molecule?
Answer: > 100 µM (inactive)

Question: And the GI50 (M14)?
Answer: > 100 µM (inactive)

Question: What about the GI50 (UACC-257) of the same molecule?
Answer: > 100 µM (inactive)

Question: What about the GI50 (OVCAR-8) of the same molecule?
Answer: > 100 µM (inactive)

Question: What about the GI50 (RXF 393) of the same molecule?
Answer: > 100 µM (inactive)

Question: And the GI50 (LXFL 529)?
Answer: > 100 µM (inactive)

Question: What about the GI50 (OVCAR-3) of the same molecule?
Answer: > 100 µM (inactive)

Question: What about the GI50 (K562) of the same molecule?
Answer: 64 µM (inactive)

Question: What about the GI50 (SK-MEL-2) of the same molecule?
Answer: > 100 µM (inactive)

Question: And the GI50 (SR)?
Answer: > 10 µM (inactive)

Question: And the GI50 (SF-539)?
Answer: > 100 µM (inactive)

Question: And the GI50 (NCI-H226)?
Answer: > 100 µM (inactive)

Question: And the GI50 (NCI-H460)?
Answer: > 100 µM (inactive)

Question: What about the GI50 (M19-MEL) of the same molecule?
Answer: > 100 µM (inactive)

Question: And the GI50 (786-0)?
Answer: > 100 µM (inactive)

Question: And the GI50 (DMS-273)?
Answer: > 100 µM (inactive)

Question: What about the GI50 (Malme-3M) of the same molecule?
Answer: > 100 µM (inactive)

Question: And the GI50 (HOP-18)?
Answer: > 100 µM (inactive)

Question: What about the GI50 (A498) of the same molecule?
Answer: > 100 µM (inactive)

Question: What about the GI50 (DMS-114) of the same molecule?
Answer: 76 µM (inactive)

Question: What about the GI50 (NCI-H522) of the same molecule?
Answer: 16.3 µM (inactive)

Question: And the GI50 (XF498)?
Answer: > 100 µM (inactive)

Question: What about the GI50 (SK-MEL-28) of the same molecule?
Answer: > 100 µM (inactive)

Question: And the GI50 (RXF 631)?
Answer: 40.4 µM (inactive)

Question: What about the GI50 (OVCAR-4) of the same molecule?
Answer: > 100 µM (inactive)

Question: And the GI50 (HOP-62)?
Answer: > 100 µM (inactive)

Question: And the GI50 (TK-10)?
Answer: > 100 µM (inactive)

Question: What about the GI50 (KM-20L2) of the same molecule?
Answer: > 100 µM (inactive)

Question: And the GI50 (UO-31)?
Answer: > 100 µM (inactive)

From ChEMBL document CHEMBL1201862, “PubChem BioAssay data set” (2004)
